Key:
[1] = In Vitro Microsome Stability Assay (human); type: in vitro ADME; settings: human, 30 min, NADPH
Summary of the method: (§1)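 Species liver microsomes in potassium phosphate buffer were preincubated at 37 °C for 3–5 min with test compound (added from 0.25 mM DMSO stock), then started with NADPH. Samples at 0 and 30 min were quenched with acetonitrile containing internal standard and analysed by LC-MS/MS; % remaining at 30 min used analyte/IS AUC ratios relative to t=0.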

[2] = test system: PD1 signal sequence plus 10 amino acids fused to Gaussia Luciferase (PD1-ss+10aa/Gaussia Luciferase); test: Dox Induced PD1-ss-Gluc Assay; type: cell-based; settings: 24 hr, 293FRT/TO; read-out: 24 hr Dox Inducible PD1ssGluc 293FRT/TO: Mean IC50
Summary of the method: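 Stable Flp-In 293 T-REx line expressing the fusion under tetracycline-inducible control, plated the day before assay. Compound dilutions added with doxycycline and incubated at 37 °C, 5% CO2; unspecified stereocentres mean data refer to stereoisomer mixtures.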

[3] = In Vitro Microsome Stability Assay (monkey); type: in vitro ADME; settings: monkey, 30 min, NADPH
Summary of the method: as §1

[4] = test system: multiple myeloma cell line NCl-H929; test: H929 Cell Viability Assay; type: cell-based, human; settings: Homo sapiens, NCI-H929, 48 h, H929, read-out: 48 hr H929 Viability Celltiter-Glo: Mean EC50
Summary of the method: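 NCI-H929 myeloma cells in RPMI 1640 with 10% FBS were treated with compound dilutions for 48 h at 37 °C, and viability was then read by CellTiter-Glo luminescence. Compounds drawn without stereochemistry were tested as stereoisomer mixtures.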

[5] = test system: full length TNFα (amino acids 1-233) fused to Gaussia Luciferase; test: Dox Induced TNFα-FL-Gluc Assay; type: cell-based; settings: 24 hr, 293FRT/TO; read-out: 24 hr Dox Inducible TNFaFLGluc 293FRT/TO: Mean IC50
Summary of the method: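 Stable Flp-In 293 T-REx line expressing doxycycline-inducible full-length TNFα fused to Gaussia luciferase; cells plated the day before, then treated with compound dilutions in doxycycline-containing medium at 37° C, 5% CO2. Unspecified stereocentres mean stereoisomer mixtures were tested.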

[6] = In Vitro Microsome Stability Assay (rat); type: in vitro ADME; settings: rat, 30 min, NADPH
Summary of the method: as §1

[7] = test system: multiple myeloma cell line U266B1; test: U266 Cell Viability Assay; type: cell-based, human; settings: Homo sapiens, U-266; 48 hr, U266; read-out: 48 hr U266 Viability Celltiter-Glo: Mean EC50
Summary of the method: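 U266B1 myeloma cells in RPMI 1640 with 10% FBS were treated with compound dilutions for 48 h at 37° C, 5% CO2. Viability was read as CellTiter-Glo luminescence. Data for structures drawn without stereochemistry refer to stereoisomer mixtures.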

[8] = In Vitro Microsome Stability Assay (mouse); type: in vitro ADME; settings: mouse, 30 min, NADPH
Summary of the method: as §1

Compound | Liver Microsome Stability-% Left after 30 min w/ NADPH (%) Human [1] [%] | IC50 [2] [nM] | Liver Microsome Stability-% Left after 30 min w/ NADPH (%) Monkey [3] [%] | EC50 [4] [nM] | IC50 [5] [nM] | Liver Microsome Stability-% Left after 30 min w/ NADPH (%) Rat [6] [%] | EC50 [7] [nM] | Liver Microsome Stability-% Left after 30 min w/ NADPH (%) Mouse [8] [%]
C=C1CN(S(=O)(=O)c2ccc(N(C)C)cc2)CCCN(CC2CCCCC2)CCCN(S(=O)(=O)N2CCc3cc(F)ccc3C2)C1 [A59, 4-{[9-(cyclohexylmethyl)-5-[(6-fluoro-1,2,3,4-tetrahydroisoquinolin-2-yl)sulfonyl]-3-methylidene-1,5,9-triazacyclododecan-1-yl]sulfonyl}-N,N-dimethylaniline] | 1.89 | 24.2 | 1.94 | 1440 | 616 | 3.9 | > 25000 | 3.73
C=C1CN(S(=O)(=O)c2ccc(N(C)C)cc2)CCCN(CC2CCCCC2)CCCN(S(=O)(=O)N2CCc3cc(Br)ccc3C2)C1 [A60, 4-({5-[(6-bromo-1,2,3,4-tetrahydroisoquinolin-2-yl)sulfonyl]-9-(cyclohexylmethyl)-3-methylidene-1,5,9-triazacyclododecan-1-yl}sulfonyl)-N,N-dimethylaniline] | 46.7 | 18.5 | 38.7 | 1480 | 886 | 50.3 | > 25000 | 60.8
COC1CN(S(=O)(=O)c2ccc(N(C)C)cc2)CCCN(CC2CCCCC2)CCCN(S(=O)(=O)N2CCC(c3ccccc3)CC2)C1 (centres unmarked) [A61, 4-{[9-(cyclohexylmethyl)-3-methoxy-5-[(4-phenylpiperidin-1-yl)sulfonyl]-1,5,9-triazacyclododecan-1-yl]sulfonyl}-N,N-dimethylaniline] | 13.3 | 956 | 8.96 | > 25000 | > 25000 | 19.6 | > 25000 | 17.9
C=C1CN(S(=O)(=O)c2ccc(N(C)C)cc2)CCCN(CC2CCCCC2)CCCN(S(=O)(=O)N2CCc3cc(-c4ccccc4)ccc3C2)C1 [A63, 4-((9-(cyclohexylmethyl)-3-methylene-5-((6-phenyl-3,4-dihydroisoquinolin-2(1H)-yl)sulfonyl)-1,5,9-triazacyclododecan-1-yl)sulfonyl)-N,N-dimethylaniline] | 76.4 | 43.6 | 84.4 | 7430 | 1870 | 88.2 | > 25000 | 85.2
C=C1CN(S(=O)(=O)c2ccc(N(C)C)cc2)CCCN(CC2CCCCC2)CCCN(S(=O)(=O)N2CCC(C3CCCC3)CC2)C1 [A64, 4-{[9-(cyclohexylmethyl)-5-[(4-cyclopentylpiperidin-1-yl)sulfonyl]-3-methylidene-1,5,9-triazacyclododecan-1-yl]sulfonyl}-N,N-dimethylaniline] | 53.3 | 75 | 48 | 6400 | 3290 | 63.1 | > 25000 | 53.1
C=C1CN(S(=O)(=O)c2ccc(N(C)C)cc2)CCCN(CC2CCCCC2)CCCN(S(=O)(=O)N2CCC(C3CCCCC3)CC2)C1 [A65, 4-{[9-(cyclohexylmethyl)-5-[(4-cyclohexylpiperidin-1-yl)sulfonyl}-3-methylidene-1,5,9-triazacyclododecan-1-yl]sulfonyl}-N,N-dimethylaniline] | 53.1 | 154 | 57.8 | > 25000 | 8720 | 78 | > 25000 | 73.4
C=C1CN(S(=O)(=O)c2ccc(N(C)C)cc2)CCCN(CC2CCCCC2)CCCN(S(=O)(=O)N2CCC(OC(C)C)CC2)C1 [A66, 4-{[9-(cyclohexylmethyl)-3-methylidene-5-{[4-(propan-2-yloxy)piperidin-1-yl]sulfonyl}-1,5,9-triazacyclododecan-1-yl]sulfonyl}-N,N-dimethylaniline] | 0.13 | 188 | 0.35 | 9210 | 3500 | 0.39 | > 25000 | 0.02
C=C1CN(S(=O)(=O)c2ccc(N(C)C)cc2)CCCN(CC2CCCCC2)CCCN(S(=O)(=O)N2CC=C(C3=CCCC3)CC2)C1 [A67, 4-{[9-(cyclohexylmethyl)-5-{[4-(cyclopent-1-en-1-yl)-1,2,3,6-tetrahydropyridin-1-yl]sulfonyl}-3-methylidene-1,5,9-triazacyclododecan-1-yl]sulfonyl}-N,N-dimethylaniline] | 33.2 | 40.8 | 27.6 | 2400 | 937 | 45.4 | > 25000 | 28
C=C1CN(S(=O)(=O)c2ccc(N(C)C)cc2)CCCN(CC2CCCCC2)CCCN(S(=O)(=O)N2CC=C(C3=CCCCC3)CC2)C1 [A68, 4-[(5-{[4-(cyclohex-1-en-1-yl)-1,2,3,6-tetrahydropyridin-1-yl]sulfonyl}-9-(cyclohexylmethyl)-3-methylidene-1,5,9-triazacyclododecan-1-yl)sulfonyl}-N,N-dimethylaniline] | 50.5 | 156 | 57.1 | > 25000 | 6440 | 57.1 | > 25000 | 55.1
C=C1CN(S(=O)(=O)c2ccc(N(C)C)cc2)CCCN(CC2CCCCC2)CCCN(S(=O)(=O)N2CC=C(c3cccc(Cl)c3)CC2)C1 [A69, 4-[(5-{[4-(3-chlorophenyl)-1,2,3,6-tetrahydropyridin-1-yl]sulfonyl}-9-(cyclohexylmethyl)-3-methylidene-1,5,9-triazacyclododecan-1-yl)sulfonyl]-N,N-dimethylaniline] | 63 | 136 | 58.2 | > 25000 | > 25000 | 74.3 | > 25000 | 64.6

— patent US11578055B2, “Triazacyclododecansulfonamide (“TCD”)-based protein secretion inhibitors” (KEZAR LIFE SCIENCES, priority 2018, dated 2023)
